# Test results from patent US20260355199A1, “COMPOSITIONS AND METHODS FOR TREATING OR PREVENTING NONALCOHOLIC STEATOHEPATITIS (NASH), ANOREXIA, DEPRESSION, ENDOMETRIOSIS, AND OTHER DISEASES OR DISORDERS” (priority 2022, published 2026).
# Entries after “also recorded” stand apart in the source; their conditions may differ.
# How the values were obtained:
# [1] = system: high fat diet (HFD)-induced diabetic mice; experiment: Feeding of HFD-induced diabetic mice; format: in vivo, mouse; settings: drinking water, two weeks
# Description: It has previously been shown that TET3 expression is aberrantly elevated in the livers of humans and mice with type 2 diabetes and that liver-specific, siRNA-mediated TET3 knockdown improves glucose homeostasis both in dietary and genetic mouse models of diabetes (Li D. et al., 2020, Nature Communications, 11:342). Bobcat339 (4-Amino-1-[1,1′-biphenyl]-3-yl-5-chloro-2(1H)-pyrimidinone) is a synthetic cytosine derivative capable of binding competitively with 5mC to the active sites of [COMPOUND LEFT OUT] and inhibits their enzymatic activity in cultured neuronal cells (Chua G. N. L. et al., 2019, ACS Medicinal Chemistry Letters, 10:180-185). Although not bound by any particular theory, it was hypothesized that Bobcat339 has an anti-diabetic effect owing to its ability to inhibit [COMPOUND LEFT OUT]. Thus, the present studies employed high fat diet (HFD)-induced diabetic mice that were treated with Bobcat339 in drinking water for two weeks. […] Thus, nondiabetic mice fed on regular chow were treated with Bobcat339 in drinking water. Four days later, ARCs were isolated from ad libitum-fed mice and analyzed. […] In light of these observations, additional studies began to explore [COMPOUND LEFT OUT] in AgRP neurons for a potential role in the control of feeding and energy metabolism.
# [2] = system: TET2; experiment: TET2 expression in the ARC of mice; format: in vivo, mouse; settings: 2.5 mg/kg i.p., two days
# Procedure: (§1) To test whether Bobcat339 affects TET3 protein expression in AgRP neurons, Agrp-IRES-Cre::LSL-Cas9-GFP mice with GFP expression specifically in AgRP neurons were intraperitoneally injected with vehicle or Bobcat339 at 2.5 mg/kg, followed by isolation of ARCs under fed conditions (9:00-11:00) two days later. This dose was chosen based on the dose response studies. TET2 expression was widespread but was negligible in AgRP neurons.
# (§2) Bobcat339 powder (Sigma-Aldrich, SML2611) was freshly dissolved in DMSO (vehicle) at a concentration of 50 mg/mL and filtered through a 0.22 micron. It was further diluted with 1×PBS to a final concentration of 0.5 mg/mL before injections. Mice were injected intraperitoneally with Bobcat339 at 1 mg/kg, 2.5 mg/kg, or 4 mg/kg.
# The immunofluorescence for brain slices was conducted using previous methods (18). In brief, postfixed sections were cut into 40-μm-thick sections, followed by 5 times washing. […] The sections were coverslipped and scoped using a Keyence BZ-X700 fluorescence microscope. The fluorescence signals from GFP in AgRP neurons were detected without immunostaining.
# [3] = system: Tet3 mRNA; experiment: Tet3 mRNA in the ARC of mice; format: in vivo, mouse; settings: 2.5 mg/kg i.p., two days
# Procedure: as §1, §2
# Total RNAs were extracted from neuronal cells or homogenized hypothalamic arcuate nucleus tissue samples using PureLink RNA Mini Kit (Ambion, 12183025). cDNA was synthesized using PrimeScript RT Reagent Kit in a 20 μl reaction containing 0.5-1 μg of total RNA. Real-time quantitative PCR was performed in a 15 μl reaction containing 0.5-1 μl of cDNA using SsoAdvanced Universal SYBR Green Supermix in a Bio-Rad iCycler. Specificity was verified by melting curve analysis. The Ct values of each sample were used in the post-PCR data analysis. Gene expression levels were normalized against RPLP0.
# [4] = system: Bobcat339-treated ABA mice; experiment: Behavioral tests (OFT, TST, FST); format: in vivo, mouse
# Description: It has been reported that AgRP neuron-specific TET3 knockdown reduces stress-like behaviors with decreased levels of circulating corticosterone. […] The open field test (OFT) has been used to assess general locomotor activity and anxiety; the tail suspension test (TST) and forced swim test (FST) have been used to evaluate behavioral despair and also to test the efficacy of new antidepressant compounds. All three tests (OFT, TST, and FST) have been used in previous studies to assess behavioral impacts of AgRP neurons in mice (Miletta, M. C. et al., 2020, Nature Metabolism, 2:1204-1211).
# For all behavioral tests, mice were transferred to the testing room 1 h prior to testing for acclimation to the environment. All behavioral tests were performed in the afternoon (14:00-16:00). All behavioral apparatus was wiped with 70% ethanol prior to each trial and between trials. The open field (OF) apparatus consisted of a 56×56 cm open arena with 30 cm high walls. The mouse was placed into the center of the arena and allowed to move freely for 10 min with the activity being recorded and tracked by LimeLight 3 software (Actimetrics, Coulbourn Instruments). The software recorded and analyzed the distance and time traveled in the central (28×28 cm central area of the OF) and outer areas of the arena. The tail suspension test (TST) and the forced swim test (FST) lasted for 6 min and the total amount of immobility time during the final 4 min was measured for each animal.
# [5] = system: MDMs; experiment: TUNEL assay in human MDMs; format: cell-based; settings: 10 μM, 48 h
# Procedure: For TET3 expression restoration experiments, cells seeded in 24-well plates were infected with Ad-GFP or Ad-TET3 at 4000 gc/cell. Following 16 h of infection, vehicle or Bobcat339 were added at a final concentration of 10 μM. Protein and RNA were isolated 48 hours later and analyzed.
# These were performed using the In Situ Cell Death Detection Kit (Sigma Aldrich, 12156792910). Briefly, cells were fixed with 4% paraformaldehyde in PBS for 1 h at RT and rinsed with PBS, followed by permeabilization with 0.1% Triton X-100 in 0.1% sodium citrate for 2 min on ice. TUNEL reaction mixture was added and incubation was carried out at 37 °C for 60 min. DAPI was added to counter-stain the cells for 1 min. The slides were coverslipped and scoped using a Keyence BZ-X700 fluorescence microscope.
# [6] = Tolerability of Bobcat339 in mice; format: in vivo, mouse; settings: disease models in mice
# [7] = system: TET1; settings: cited from earlier work
smiles,measurement,setting,value
"Nc1nc(=O)n(-c2cccc(-c3ccccc3)c2)cc1Cl [Bobcat339, 4-Amino-1-[1,1′-biphenyl]-3-yl-5-chloro-2(1H)-pyrimidinone]",feeding,[1],became hyperphagic
same,TET2 expression,[2],did not significantly affect TET2 expression
same,Tet3 mRNA in the ARC,[3],did not alter the mRNA abundance of Tet3; also recorded: no significant change
same,FST immobility time,[4]; forced swim test,spent less immobility time
same,OFT time spent in the center zone,[4]; open field test,increased time spent in the center zone
same,OFT total distance travelled,[4]; open field test,no differences in the total distance travelled
same,TST immobility time,[4]; tail suspension test,spent less immobility time
same,apoptosis (TUNEL),[5],increased apoptosis; also recorded: induced apoptosis; also recorded: a significant increase in pyroptotic cell death
same,apoptosis (TUNEL / Caspase-1),[5]; with Ad-TET3,abolished when TET3 protein was restored to control levels; also recorded: not seen when TET3 expression level was restored
same,side effects / toxicity,[6],without discernible toxicity; also recorded: without discernible side effects; also recorded: no discernible toxicity
same,inhibitory activity against TET1,[7]; in the absence of contaminating copper (II),negligible inhibitory activity
same,inhibition of enzymatic activity of TET1,[7]; initially reported,inhibit the enzymatic activity
